The target of test [1] is T1, SHP-2 enzyme (Met1-Leu525) (Homo sapiens, UniProt Q06124).
T1 construct: synthetized by Origene, Met1-Leu525, cat #TP750155; purchased Origene TP750155
T1 sequence (Q06124 1-525): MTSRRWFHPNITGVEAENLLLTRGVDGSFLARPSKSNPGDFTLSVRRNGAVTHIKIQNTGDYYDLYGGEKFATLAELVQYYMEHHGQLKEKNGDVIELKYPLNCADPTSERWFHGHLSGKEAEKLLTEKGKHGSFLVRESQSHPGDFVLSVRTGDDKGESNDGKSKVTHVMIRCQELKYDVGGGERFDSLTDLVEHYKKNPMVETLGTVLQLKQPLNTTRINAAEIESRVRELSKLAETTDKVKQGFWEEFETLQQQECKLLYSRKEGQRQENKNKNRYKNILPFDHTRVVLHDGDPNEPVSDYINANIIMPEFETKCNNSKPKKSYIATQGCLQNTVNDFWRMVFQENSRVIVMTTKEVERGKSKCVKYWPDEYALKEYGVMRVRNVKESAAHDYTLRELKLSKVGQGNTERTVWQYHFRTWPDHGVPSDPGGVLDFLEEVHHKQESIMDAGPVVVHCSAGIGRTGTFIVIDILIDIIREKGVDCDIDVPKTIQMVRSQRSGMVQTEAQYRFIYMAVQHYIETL
Briefly: SHP2 inhibition enzymatic assay (DiFMUP substrate, IRS1 peptide activation). The test is classed as biochemical. Conditions: SHP2 wt; activated by 500 nM IRS1 peptide; 75 μM DiFMUP substrate. A digest of the protocol:
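SHP-2 (Met1-Leu525, 0.5 nM final) preincubated 30 min with compounds and IRS1 activating peptide in HEPES pH 7.2 buffer with NaCl, KCl, EDTA, tween-20, 5 mM DTT. DiFMUP then added for 30 min at room temperature and fluorescence read. IC50 from four-parameter logistic fit of % inhibition.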

Test [2] relates to ERK phosphorylation in KYSE-520 cells. Briefly: Phospho-ERK cellular assay (Advanced phospho-ERK1/2 (Thr202/Tyr204) TR-FRET kit). The test is classed as cell-based. Particulars: Homo sapiens, KYSE-520, 2 h, KYSE-520 cells, 2 h at 37° C., TR-FRET; read-out: pERK IC50. A digest of the protocol: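 IC50 values are inflection points of four-parameter logistic fits of percent activity against compound dilution. Compound exposure lasted 2 h at 37° C in KYSE-520 cells. Lysates were probed overnight with Eu-cryptate/d2 antibodies to ERK1/2 phosphorylated at Thr202/Tyr204, so reduced TR-FRET indicates SHP2 inhibition.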
Background: Time-resolved FRET reads energy transfer from a long-lived donor to a nearby acceptor.

In general, IC50 refers to the concentration that inhibits the measured activity by half. Regarding `CC1(N)CCN(c2nc3nc(Sc4cccc5cccnc45)cnc3[nH]2)CC1` [Example 88, 4-methyl-1-(5-(quinolin-8-ylthio)-1H-imidazo[4,5-b]pyrazin-2-yl)piperidin-4-amine], the IC50 in test [1] is less than 0.5 µM; in test [2], more than 5 µM.
As for `N[C@@H]1c2ccccc2OC12CCN(c1nc3nc(Sc4cccnc4C(F)(F)F)cnc3[nH]1)CC2` [Example 143, (R)-1′-(5-((2-(trifluoromethyl)pyridin-3-yl)thio)-1H-imidazo[4,5-b]pyrazin-2-yl)-3H-spiro[benzofuran-2,4′-piperidin]-3-amine], the IC50 in test [1] was less than 0.5 µM; in test [2], less than 1 µM.
In the case of `Nc1nccc(Sc2cnc3[nH]c(N4CCC5(CC4)Cc4ncccc4[C@H]5N)cc3n2)c1Cl` [Example 267, (S)-1′-(2-((2-amino-3-chloropyridin-4-yl)thio)-5H-pyrrolo[2,3-b]pyrazin-6-yl)-5,7-dihydrospiro[cyclopenta[b]pyridine-6,4′-piperidin]-5-amine], the 50% inhibitory concentration (IC50) in test [1] is less than 0.5 µM; in test [2], less than 1 µM.
For the compound `N[C@@H]1c2ccccc2OC12CCN(c1nc3nc(Sc4ccnc(NC5CC5)c4Cl)cnc3[nH]1)CC2` [Example 174, (R)-1′-(5-((3-chloro-2-(cyclopropylamino)pyridin-4-yl)thio)-1H-imidazo[4,5-b]pyrazin-2-yl)-3H-spiro[benzofuran-2,4′-piperidin]-3-amine], the IC50 in test [1] is less than 0.5 µM; in test [2], less than 1 µM.
Taken in the same sequence, the figures for `N[C@@H]1CCCC12CCN(c1nc3ncc(Sc4cccc(Cl)c4Cl)nc3[nH]1)CC2` [Example 3, (R)-8-(6-((2,3-dichlorophenyl)thio)-1H-imidazo[4,5-b]pyrazin-2-yl)-8-azaspiro[4.5]decan-1-amine] were less than 0.5 µM and 1 to 5 µM.
For the compound `CCNc1nccc(Sc2cnc3[nH]c(N4CCC5(CC4)Cc4ccccc4[C@H]5N)nc3n2)c1Cl` [Example 246, (S)-1′-(5-((3-chloro-2-(ethylamino)pyridin-4-yl)thio)-1H-imidazo[4,5-b]pyrazin-2-yl)-1,3-dihydrospiro[indene-2,4′-piperidin]-1-amine], the IC50 was less than 0.5 µM in test [1] and more than 5 µM in test [2].
As for `N[C@@H]1c2ccccc2CC12CCN(c1nc3ncc(Sc4ccnc5ccccc45)nc3[nH]1)CC2` [Example 176, (S)-1′-(6-(quinolin-4-ylthio)-1H-imidazo[4,5-b]pyrazin-2-yl)-1,3-dihydrospiro[indene-2,4′-piperidin]-1-amine], the IC50 is less than 0.5 µM in test [1] and less than 1 µM in test [2].
Taken in the same sequence, the figures for `Cn1cc2c(Sc3cnc4[nH]c(N5CCC6(CC5)Cc5ccccc5[C@H]6N)nc4n3)ccnc2n1` [Example 255, (S)-1′-(5-((2-methyl-2H-pyrazolo[3,4-b]pyridin-4-yl)thio)-1H-imidazo[4,5-b]pyrazin-2-yl)-1,3-dihydrospiro[indene-2,4′-piperidin]-1-amine] were less than 0.5 µM and less than 1 µM.
Take `CC1(N)CCN(c2nc3nc(Sc4ccccc4Br)cnc3[nH]2)CC1` [Example 37, 1-(5-((2-bromophenyl)thio)-1H-imidazo[4,5-b]pyrazin-2-yl)-4-methylpiperidin-4-amine]: the IC50 was less than 0.5 µM in test [1] and 1 to 5 µM in test [2].
For `N[C@@H]1c2cccnc2CC12CCN(c1nc3ncc(Sc4cccc5c4CCC(=O)N5)nc3[nH]1)CC2` [Example 170, (S)-5-((2-(5-amino-5,7-dihydrospiro[cyclopenta[b]pyridine-6,4′-piperidin]-1′-yl)-1H-imidazo[4,5-b]pyrazin-5-yl)thio)-3,4-dihydroquinolin-2(1H)-one], the IC50 was less than 0.5 µM in test [1] and 1 to 5 µM in test [2].
Taken in the same sequence, the figures for `CNC(=O)c1ncccc1Sc1cnc2[nH]c(N3CCC4(CC3)Cc3ccccc3[C@H]4N)nc2n1` [Example 224, (S)-3-((2-(1-amino-1,3-dihydrospiro[indene-2,4′-piperidin]-1′-yl)-1H-imidazo[4,5-b]pyrazin-5-yl)thio)-N-methylpicolinamide] were less than 0.5 µM and more than 5 µM.
The corresponding values for `COc1ccc2c(c1)[C@@H](N)C1(CCN(c3nc4nc(Sc5ccnc(N)c5Cl)cnc4[nH]3)CC1)C2` [Example 205, (S)-1′-(5-((2-amino-3-chloropyridin-4-yl)thio)-1H-imidazo[4,5-b]pyrazin-2-yl)-6-methoxy-1,3-dihydrospiro[indene-2,4′-piperidin]-1-amine] are less than 0.5 µM and less than 1 µM.
With `Nc1nccc(Sc2cnc3[nH]c(N4CCC5(CC4)Cc4ccc(CF)cc4[C@H]5N)nc3n2)c1Cl` [Example 245, (S)-1′-(5-((2-amino-3-chloropyridin-4-yl)thio)-1H-imidazo[4,5-b]pyrazin-2-yl)-6-(fluoromethyl)-1,3-dihydrospiro[indene-2,4′-piperidin]-1-amine], the half-maximal inhibitory concentration (IC50) in test [1] was less than 0.5 µM; in test [2], less than 1 µM.
In the case of `N#Cc1c[nH]c2nccc(Sc3cnc4[nH]c(N5CCC6(CC5)Cc5ccccc5[C@H]6N)nc4n3)c12` [Example 240, (S)-4-((2-(1-amino-1,3-dihydrospiro[indene-2,4′-piperidin]-1′-yl)-1H-imidazo[4,5-b]pyrazin-5-yl)thio)-1H-pyrrolo[2,3-b]pyridine-3-carbonitrile], the IC50 was less than 0.5 µM in test [1] and 1 to 5 µM in test [2].
Regarding `N[C@@H]1c2ccccc2CC12CCN(c1nc3nc(Sc4ccc[n+]([O-])c4C(F)(F)F)cnc3[nH]1)CC2` [Example 141, (S)-3-((2-(1-amino-1,3-dihydrospiro[indene-2,4′-piperidin]-1′-yl)-1H-imidazo[4,5-b]pyrazin-5-yl)thio)-2-(trifluoromethyl)pyridine 1-oxide], the IC50 in test [1] was less than 0.5 µM; in test [2], less than 1 µM.
Turning to `N[C@@H]1c2ccccc2CC12CCN(c1nc3nc(Sc4cccc5[nH]c(=O)cnc45)cnc3[nH]1)CC2` [Example 216, (S)-5-((2-(1-amino-1,3-dihydrospiro[indene-2,4′-piperidin]-1′-yl)-1H-imidazo[4,5-b]pyrazin-5-yl)thio)quinoxalin-2(1H)-one], the concentration for half-maximal inhibition (IC50) was less than 0.5 µM in test [1] and less than 1 µM in test [2].
As for `COc1ncc(CN)cc1Sc1cnc2[nH]c(N3CCC4(CC3)Cc3ccccc3[C@H]4N)nc2n1` [Example 250, (1S)-1′-[5-[5-(aminomethyl)-2-methoxy-pyridin-3-yl]sulfanyl-1H-imidazo[4,5-b]pyrazin-2-yl]spiro[1,3-dihydroindene-2,4′-piperidine]-1-amine], the IC50 in test [1] is more than 3 µM; in test [2], 1 to 5 µM.
On to `CC1(N)CCN(c2nc3nc(Sc4cccc5ccccc45)cnc3[nH]2)CC1` [Example 60, 4-methyl-1-(5-(naphthalen-1-ylthio)-1H-imidazo[4,5-b]pyrazin-2-yl)piperidin-4-amine], for which the results for the 50% inhibitory concentration (IC50) in test [1] and in test [2] were less than 0.5 µM and 1 to 5 µM, respectively.
Taken in the same sequence, the figures for `N[C@@H]1c2cccnc2CC12CCN(c1nc3nc(Sc4cccnc4C(F)(F)F)cnc3[nH]1)CC2` [Example 139, (S)-1′-(5-((2-(trifluoromethyl)pyridin-3-yl)thio)-1H-imidazo[4,5-b]pyrazin-2-yl)-5,7-dihydrospiro[cyclopenta[b]pyridine-6,4′-piperidin]-5-amine] were less than 0.5 µM and less than 1 µM.
Taken in the same sequence, the figures for `N[C@@H]1c2ccccc2CC12CCN(c1nc3nc(Sc4cc(O)ncc4Cl)cnc3[nH]1)CC2` [Example 241, (S)-4-((2-(1-amino-1,3-dihydrospiro[indene-2,4′-piperidin]-1′-yl)-1H-imidazo[4,5-b]pyrazin-5-yl)thio)-5-chloropyridin-2-ol] were 0.5 to 3 µM and 1 to 5 µM.
Regarding `N[C@@H]1c2ccncc2CC12CCN(c1nc3ncc(Sc4ccnc(NC5CC5)c4Cl)nc3[nH]1)CC2` [Example 196, (S)-1′-(5-((3-chloro-2-(cyclopropylamino)pyridin-4-yl)thio)-1H-imidazo[4,5-b]pyrazin-2-yl)-5,7-dihydrospiro[cyclopenta[c]pyridine-6,4′-piperidin]-5-amine], the IC50 is less than 0.5 µM in test [1] and less than 1 µM in test [2].
As to `C[C@@H]1OCC2(CCN(c3nc4nc(Sc5cccnc5C(F)(F)F)cnc4[nH]3)CC2)[C@@H]1N` [Example 96, (3S,4S)-3-methyl-8-(5-((2-(trifluoromethyl)pyridin-3-yl)thio)-1H-imidazo[4,5-b]pyrazin-2-yl)-2-oxa-8-azaspiro[4.5]decan-4-amine], the IC50 in test [1] is less than 0.5 µM; in test [2] it was 1 to 5 µM.
On to `COc1ccncc1Sc1cnc2[nH]c(N3CCC4(CC3)Cc3ccccc3[C@H]4N)nc2n1` [Example 237, (S)-1′-(5-((4-methoxypyridin-3-yl)thio)-1H-imidazo[4,5-b]pyrazin-2-yl)-1,3-dihydrospiro[indene-2,4′-piperidin]-1-amine], for which the IC50 in test [1] was less than 0.5 µM; in test [2], more than 5 µM.

For the origin of these results see patent US20220289753A1, “SHP2 INHIBITORS” (IRBM S.P.A., priority 2019, published 2022).
